Test results as given in ChEMBL document CHEMBL3098037, “Evaluation of benzoic acid derivatives as sirtuin inhibitors” (Bioorg Med Chem Lett, 2014).
Converted amounts (≈) assume the structure as drawn. The source made the active and inactive calls. The rule behind the calls is not given here.

What was measured:
Saccharomyces cerevisiae [1] = test: Inhibition of Sir2p in yeast DMY2844 assessed as growth inhibition after 48 hrs
[2] = target: T1, NAD-dependent protein deacetylase sirtuin-2 (Homo sapiens) (UniProt Q8IXJ6); test: Inhibition of SIRT2 (unknown origin) at 1.6 mM by fluorescence assay
T1 sequence (whole entry): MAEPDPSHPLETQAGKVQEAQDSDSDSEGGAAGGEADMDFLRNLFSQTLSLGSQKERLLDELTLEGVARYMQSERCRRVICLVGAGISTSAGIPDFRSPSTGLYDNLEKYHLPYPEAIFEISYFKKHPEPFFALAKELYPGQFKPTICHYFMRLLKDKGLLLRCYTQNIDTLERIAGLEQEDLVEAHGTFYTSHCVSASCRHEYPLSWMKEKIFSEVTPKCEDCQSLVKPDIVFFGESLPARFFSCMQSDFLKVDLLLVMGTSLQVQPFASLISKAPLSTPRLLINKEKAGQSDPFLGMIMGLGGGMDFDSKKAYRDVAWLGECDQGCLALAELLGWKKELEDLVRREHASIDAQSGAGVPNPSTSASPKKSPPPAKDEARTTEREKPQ

[3] = target: T2, NAD-dependent protein deacetylase sirtuin-1 (Homo sapiens) (UniProt Q96EB6); test: Inhibition of SIRT1 (unknown origin) at 1.6 mM by fluorescence assay
T2 sequence (whole entry): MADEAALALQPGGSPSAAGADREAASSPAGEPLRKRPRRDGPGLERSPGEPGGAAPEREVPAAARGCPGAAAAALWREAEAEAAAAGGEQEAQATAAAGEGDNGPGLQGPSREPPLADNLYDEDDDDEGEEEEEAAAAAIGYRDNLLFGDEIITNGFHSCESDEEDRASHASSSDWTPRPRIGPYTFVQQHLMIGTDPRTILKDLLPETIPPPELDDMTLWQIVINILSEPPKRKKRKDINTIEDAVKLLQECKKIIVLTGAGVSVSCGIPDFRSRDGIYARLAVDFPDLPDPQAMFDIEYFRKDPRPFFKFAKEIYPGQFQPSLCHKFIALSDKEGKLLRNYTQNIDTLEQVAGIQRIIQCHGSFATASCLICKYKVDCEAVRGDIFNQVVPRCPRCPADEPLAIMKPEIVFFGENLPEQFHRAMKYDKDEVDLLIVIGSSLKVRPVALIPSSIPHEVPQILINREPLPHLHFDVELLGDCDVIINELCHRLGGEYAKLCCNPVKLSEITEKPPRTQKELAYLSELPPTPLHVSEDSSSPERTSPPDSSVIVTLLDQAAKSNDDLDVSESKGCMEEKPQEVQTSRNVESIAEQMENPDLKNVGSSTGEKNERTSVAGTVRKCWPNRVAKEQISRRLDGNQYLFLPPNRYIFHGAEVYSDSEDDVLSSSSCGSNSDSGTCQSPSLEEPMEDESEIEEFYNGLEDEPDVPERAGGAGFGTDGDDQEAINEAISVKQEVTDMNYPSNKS

Saccharomyces cerevisiae [4] = test: Inhibition of Sir2p in yeast DMY2844 assessed as growth inhibition at 800 uM after 48 hrs
[5] = Cytotoxicity against human MIAPaCa2 cells; assay type: functional, cell-based; settings: MIA PaCa-2
A549 = test: Cytotoxicity against human A549 cells; assay type: functional, cell-based
DU-145 = test: Cytotoxicity against human DU145 cells; assay type: functional, cell-based
NCI-H460 = test: Cytotoxicity against human NCI-H460 cells; assay type: functional, cell-based

| SMILES | MIC (Saccharomyces cerevisiae [1]) [µM] | inhibition (Saccharomyces cerevisiae [4]) | other results |
| --- | --- | --- | --- |
| CN(C)c1ccc(C(=O)O)cc1 | 200 (≈ 33 µg/mL) |  | inhibition [2]: 30.3%; inhibition [3]: 25.3% |
| CN(C)c1ccc([N+](=O)[O-])cc1 |  | inactive |  |
| CNc1ccc(C(=O)O)cc1 | 400 (≈ 60.5 µg/mL) |  |  |
| CN(C)c1ccc(S(=O)(=O)O)cc1 |  | inactive |  |
| CC(C)(C)c1ccc(C(=O)O)cc1 | 50 (≈ 8.91 µg/mL) |  | inhibition [2]: 28%; inhibition [3]: 54.8% |
| Nc1ccc(C(=O)O)cc1 | 800 (≈ 110 µg/mL) |  |  |
| COC(=O)c1ccc(N(C)C)cc1 | 400 (≈ 71.7 µg/mL) |  |  |
| CN(C)c1ccccc1 |  | inactive |  |
| CC[n+]1c(C=CC=C2N(C)c3ccccc3C2(C)C)sc2ccccc21 |  |  | IC50 [5]: 10 nM; IC50 (A549): 10 nM; IC50 (DU-145): 10 nM; IC50 (NCI-H460): 10 nM |
| Cc1ccc(C(=O)O)cc1 | 800 (≈ 109 µg/mL) |  |  |
| C[N+](C)(C)c1ccc(C(=O)[O-])cc1 |  | inactive |  |
| CN(C)c1ccccc1C(=O)O |  | inactive |  |
| CN(C)c1ccc(C(N)=O)cc1 |  | inactive |  |
| CN(C)c1ccc(Br)cc1 |  | inactive |  |
| CC(C)c1ccc(C(=O)O)cc1 | 200 (≈ 32.8 µg/mL) |  |  |
| O=C(O)c1ccccc1 |  | inactive |  |
| CN(C)c1cccc(C(=O)O)c1 |  | inactive |  |
